Measurements published in publication PMC4109680, “Identification and Preclinical Pharmacology of the γ-Secretase Modulator BMS-869780” (International Journal of Alzheimer's Disease, 2014).

What was measured:
Format in all cases: cell-based
Aβ1-42 (MEF PS1wt) = test: Aβ1-42 ELISA in MEF dKO cultures cotransfected with APP-CTF and human presenilin-1 wild type; details: wild type human presenilin-1
Protocol: (§1) H4-APPsw cell cultures were maintained on Dulbecco's modified Eagle's medium (DMEM) supplemented with L-glutamine (2 mM), fetal bovine serum (10%), and G418 (100 μg/mL). […] Aβ1-42 and Aβ1-40 assays, and Notch inhibition assays, were carried out as described previously. Mouse embryonic fibroblasts deficient in PS1 and PS2 (MEF dKO) were passaged twice per week in DMEM/F-12 medium, consisting of a 1 : 1 mixture of DMEM and F-12 nutrient mixture supplemented with 10% fetal bovine serum, penicillin, and streptomycin. For expression of human presenilin-1 in MEF dKO cells, the full length human presenilin-1 cDNA open reading frame was cloned between the BamHI and XhoI sites of the vector pcDNA5/FRT (Invitrogen), placing presenilin-1 expression under the control of the CMV promoter. […]
(§2) IC50 determinations for Aβ1-42 and Aβ1-40 in H4-APPsw cultures in 384-well format were determined using homogeneous time-resolved fluorescence immunoassays as previously described. […] In other experiments using H4-APPsw cultures, Aβ was quantified by ELISA; for Aβ1-42 the combination of monoclonal antibodies was 26D6 and 565-HRP; for Aβ1-40 it was TSD and 26D6-HRP, and for Aβ1-x it was 4G8 and 26D6-HRP. […] For Aβ in transiently transfected PS1/PS2 dKO fibroblasts, Aβ1-42 was quantified using an ELISA kit (WACO), and Aβ1-40 was quantified by ELISA as described above for H4-APPsw cultures. […]

Aβ1-40 (MEF M146V) = test: Aβ1-40 ELISA in MEF dKO cultures cotransfected with APP-CTF and human presenilin-1 M146V allele
Protocol: as §1, §2

pregnane-X-receptor = target: T1, pregnane-X-receptor (Homo sapiens, UniProt O75469); test: Pregnane-X-receptor transactivation assay (PXR-TA), luciferase reporter in HepG2 cells
T1 construct: host or cells: HepG2
Protocol: Determination of IC50 values for inhibition of secreted alkaline phosphatase (SEAP) was carried out using an H4 cell line stably expressing SEAP. Cells were treated overnight with compounds in 384-well format, and SEAP accumulation in the culture media was quantified using a chemiluminescence substrate. The pregnane-X-receptor transactivation assay (PXR-TA) was based on the methods of Goodwin et al. as described previously. In the 4-day rat study with BMS-869780, tissues were fixed in 10% neutral buffered formalin, embedded in paraffin, sectioned, stained with hematoxylin and eosin, and examined by light microscopy.
Figure 10 BMS-869780 caused PXR activation in vitro and lipidosis in rat liver. (a) PXR activation in the presence of BMS-869780 was evaluated in HepG2 cell cultures using a luciferase transcriptional reporter construct (●), or by assay of CYP3A4 mRNA levels in primary human hepatocyte (PHH) cultures from two individual donors (▲ and ▼). Activation in both assays is expressed as % relative to activation in the presence of rifampicin, 10 μM, in parallel cultures. (b) Liver section from vehicle-dosed rats. (c) Liver section from rats given 4 daily doses of BMS-869780 at 100 mg/kg.

T1 sequence (O75469 whole entry): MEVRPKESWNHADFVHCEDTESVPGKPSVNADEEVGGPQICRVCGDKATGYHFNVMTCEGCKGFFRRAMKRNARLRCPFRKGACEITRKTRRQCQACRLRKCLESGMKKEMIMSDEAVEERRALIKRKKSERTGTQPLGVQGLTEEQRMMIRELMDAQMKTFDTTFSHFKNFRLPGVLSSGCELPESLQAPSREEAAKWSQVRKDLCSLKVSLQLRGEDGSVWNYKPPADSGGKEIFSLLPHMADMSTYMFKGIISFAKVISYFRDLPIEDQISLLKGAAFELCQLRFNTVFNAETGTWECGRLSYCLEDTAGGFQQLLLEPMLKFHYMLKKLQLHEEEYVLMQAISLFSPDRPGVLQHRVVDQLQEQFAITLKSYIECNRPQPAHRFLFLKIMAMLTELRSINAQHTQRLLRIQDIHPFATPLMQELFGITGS

Q: How did the IC50 (Aβ1-42 (MEF PS1wt)) turn out when `COc1cc(Nc2nc3n(n2)CCCC[C@H]3c2ccc(F)cc2)ccc1-n1cnc(Cl)c1` [BMS-869780] was run?
A: The IC50 was 7.7 nM.

Q: What about the IC50 (Aβ1-40 (MEF M146V); Homo sapiens, presenilin-1 M146V allele) of the same molecule?
A: Its IC50 is 34 nM.

Q: What about the “Aβ1-40 IC50 shift in M146V allele relative to wild type presenilin” value (Aβ1-40 (MEF M146V); MEF cultures) of the same molecule?
A: Its value is “ca. 3 fold”.

Q: What about the “activity in PXR-TA” value (pregnane-X-receptor) of the same molecule?
A: The value was “robust activity”.

Q: And the “concentrations at which PXR transcription was activated” value (pregnane-X-receptor; HepG2 luciferase reporter, relative to rifampicin 10 μM)?
A: The value was at least 300 nM.
